Series [1] deals with T1, Glucose-dependent insulinotropic receptor (Homo sapiens, UniProt Q8TDV5).
T1 sequence (Q8TDV5 whole entry): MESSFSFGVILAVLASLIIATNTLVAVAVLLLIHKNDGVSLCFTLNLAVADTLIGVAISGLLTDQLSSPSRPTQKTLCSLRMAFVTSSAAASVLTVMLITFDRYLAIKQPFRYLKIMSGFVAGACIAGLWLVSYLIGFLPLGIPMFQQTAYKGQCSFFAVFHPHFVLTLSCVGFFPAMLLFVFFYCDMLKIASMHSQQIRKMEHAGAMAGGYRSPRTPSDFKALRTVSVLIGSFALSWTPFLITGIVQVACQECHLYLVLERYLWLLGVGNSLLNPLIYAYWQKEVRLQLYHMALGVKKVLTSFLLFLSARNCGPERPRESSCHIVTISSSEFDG
The experiment in a line: Agonist activity at human GPR119.

Series [2] concerns the target T2, Glucose-dependent insulinotropic receptor (Homo sapiens) (UniProt Q8TDV5).
T2 sequence (whole entry): T1 sequence (Q8TDV5 whole entry)
Kind of series: Intrinsic activity at human GPR119 relative to control.

The nature of series [3]: Half life in Sprague-Dawley rat at 5 mg/kg, po. In kind it is ADME, organism-based. The settings on record: Sprague-Dawley, in vivo. Also noted: dose 5 mg/kg, route oral.
A short description of series [4]: Half life in human liver microsomes. It counts as ADME. A general note: Microsomes from liver hold many membrane-bound enzymes, among them those of drug oxidation.
Series [5] is described as follows: Half life in mouse. It counts as ADME, organism-based. The settings on record: in vivo.
Series [6] is described as follows: Solubility of the compound at pH 6.5. In kind it is physicochemical. The settings on record: buffer.
A short description of series [7]: Solubility of the compound in 50% PEG400/ 50% PBS solution. In kind it is physicochemical.

Values after ≈ are worked out from the molar mass of the structure shown.

Usually EC50 stands for the concentration giving half of the maximal effect. The term half-life denotes how long it takes for the measured level to halve. A lower half-life goes with rapid decline. The solubility is the dissolved amount per volume that the medium holds.

Turning to `CCCc1cnc(N2CCC(Oc3ccn(-c4ccc(S(C)(=O)=O)cc4)c(=O)c3)CC2)nc1`, the EC50 in series [1] came to 16 nM. The molecule also returned an Intrinsic activity in series [2] of 0.8.

In the case of `CCCc1cnc(N2CCC(Oc3ccn(-c4ccc(N5CCCC5=O)cc4)c(=O)c3)CC2)nc1`, it took 32 nM to reach a half-maximal effect in series [1] (EC50). The molecule also yielded an Intrinsic activity in series [2] of 0.8.

For `CCCc1cnc(N2CCC(Oc3ccn(-c4ccc(S(C)(=O)=O)c(F)c4)c(=O)c3)CC2)nc1`, the EC50 in series [1] was determined as 9 nM. The same molecule showed an Intrinsic activity in series [2] of 0.8.

In series [1], `CC(C)OC(=O)N1CCC(Oc2ccn(-c3ccc(S(C)(=O)=O)cc3)c(=O)c2)CC1` showed an EC50 of 133 nM. Besides, in series [2], the Intrinsic activity came out at 0.8.

Consider `CC(C)OC(=O)N1[C@@H]2CC[C@@H]1CC(Oc1ccn(-c3ccc(S(C)(=O)=O)cc3)c(=O)c1)C2` (relative stereo; 14), for which, in series [2], the Intrinsic activity worked out at 0.7.

Take `CC(C)OC(=O)N1CC(Oc2ccn(-c3ccc(S(C)(=O)=O)cc3)c(=O)c2)C1`: the EC50 in series [1] was > 10000 nM.

As for `CC(C)OC(=O)N1CCC(Oc2ccn(-c3ccc(S(C)(=O)=O)cc3)c(=O)c2)C1` (stereo not given), the EC50 in series [1] was > 10000 nM.

The molecule `CCCc1cnc(N2CCC(Oc3ccn(-c4ccc(C#N)cc4)c(=O)c3)CC2)nc1` registered an EC50 in series [1] of 11 nM. In series [2], the Intrinsic activity came to 0.8.

`CS(=O)(=O)c1ccc(-n2cc(Cl)c(OC3CCN(c4ncc(C(F)(F)F)cn4)CC3)cc2=O)cc1`: the half-life was > 72 min in series [3], > 120 min in series [4] and 16 min in series [5]. In series [1], the EC50 was 13 nM. In addition, the figures for the solubility in series [6] and in series [7] were < 1 µg/mL and 3 µg/mL (≈ 5.67 µM), respectively.

`CCc1ccc(N2CCC(Oc3ccn(-c4ccc(S(C)(=O)=O)cc4)c(=O)c3)CC2)nc1` yielded an EC50 in series [1] of 104 nM. For the same molecule, the Intrinsic activity in series [2] amounted to 0.6.

As to `CC(C)OC(=O)N1CC(COc2ccn(-c3ccc(S(C)(=O)=O)cc3)c(=O)c2)C1`, in series [1], the EC50 is > 10000 nM.

For `CS(=O)(=O)c1ccc(-n2cc(Cl)c(OC3CCN(c4ncc(Cl)cn4)CC3)cc2=O)cc1F`, the half-life in series [3] amounted to 12 min; in series [4] it was 39 min; in series [5], 18 min. In addition, in series [1], a half-maximal effect (EC50) was put at 13 nM. Besides, the solubility in series [6] turned out to be 3 µg/mL (≈ 5.84 µM); in series [7] it was 199 µg/mL (≈ 388 µM).

Molecule `CC(C)OC(=O)N1[C@@H]2CC[C@@H]1CC(Oc1ccn(-c3ccc(S(C)(=O)=O)cc3)c(=O)c1)C2` (relative stereo; 13) [listing 1 of 2 here] came in with an EC50 in series [1] of 870 nM.

As for `CC(C)OC(=O)N1CCC(COc2ccn(-c3ccc(S(C)(=O)=O)cc3)c(=O)c2)C1` (stereo not given), the EC50 in series [1] was > 10000 nM.

With `CCCc1cnc(N2CCC(Oc3ccn(-c4ccc(S(C)(=O)=O)cc4)c(=O)c3Cl)CC2)nc1`, the EC50 in series [1] was > 10000 nM.

For the molecule `CCCc1cnc(N2CCC(Oc3ccn(-c4ccc([S+](C)[O-])cc4)c(=O)c3)CC2)nc1` (racemic), in series [1], the EC50 was 41 nM. In series [2], this molecule displayed an Intrinsic activity of 0.9.

As for `CC(C)OC(=O)N1CCC(COc2ccn(-c3ccc(S(C)(=O)=O)cc3)c(=O)c2)CC1`, in series [1], the EC50 came out at 1700 nM. The same molecule came in with an Intrinsic activity in series [2] of 0.7.

In series [2], `CCCc1cnc(N2CCC(Oc3cc(=O)n(-c4ccc(S(C)(=O)=O)cc4)cc3Cl)CC2)nc1` came in with an Intrinsic activity of 0.8.

As for `CC(C)(C)OC(=O)N1CCC(Oc2ccn(-c3ccc(S(C)(=O)=O)cc3)c(=O)c2)CC1`, the midpoint of the response in series [1], the EC50, lay at 183 nM. The Intrinsic activity in series [2] was found to be 0.8.

`CCCc1cnc(N2CCC(Oc3cc(C)n(-c4ccc(S(C)(=O)=O)cc4)c(=O)c3)CC2)nc1`: in series [1], the EC50 is > 10000 nM.

In the case of `CCc1cnc(N2CCC(Oc3ccn(-c4ccc(S(C)(=O)=O)cc4)c(=O)c3)CC2)nc1`, the EC50 in series [1] is 57 nM. This molecule also registered an Intrinsic activity in series [2] of 0.8.

On to `CS(=O)(=O)c1ccc(-n2cc(Cl)c(OC3CCN(c4ncc(C(F)(F)F)cn4)CC3)cc2=O)cc1F`, for which the half-life was > 48 min in series [3], > 120 min in series [4] and 27 min in series [5]. In series [1], the EC50 turned out to be 16 nM. Also, the solubility in series [6] was < 1 µg/mL; in series [7], 31 µg/mL (≈ 56.7 µM).

`CCCc1cnc(N2CCC(Oc3cc(=O)n(-c4ccc(S(C)(=O)=O)cc4)cc3-c3ccccc3)CC2)nc1`: the EC50 in series [1] is > 10000 nM.

With `CS(=O)(=O)c1ccc(-n2cc(Cl)c(OC3CCN(c4ncc(C(F)(F)F)cn4)CC3)cc2=O)c(F)c1`, the half-life in series [3] is > 72 min; in series [4] it was > 120 min; in series [5], 30 min. In series [1], this molecule gave an EC50 of 12 nM. Also, the results for the solubility in series [6] and in series [7] were 1 µg/mL (≈ 1.83 µM) and 122 µg/mL (≈ 223 µM), respectively.

Turning to `CCCc1cnc(N2CCC(Oc3ccn(-c4ccc(-n5ccnc5)cc4)c(=O)c3)CC2)nc1`, in series [2], the Intrinsic activity stood at 0.8.

`CCCc1cnc(N2CCC(Oc3ccn(-c4ccc(-n5cncn5)cc4)c(=O)c3)CC2)nc1`: the EC50 in series [1] was 63 nM. The molecule further displayed an Intrinsic activity in series [2] of 0.8.

In series [1], `Cc1ccnc(N2CCC(Oc3ccn(-c4ccc(S(C)(=O)=O)cc4)c(=O)c3)CC2)n1` had an EC50 of 724 nM. Further, the Intrinsic activity in series [2] was 0.3.

`CCCc1cnc(N2CCC(Oc3ccn(-c4ccc(NC(=O)C(C)(C)C)cc4)c(=O)c3)CC2)nc1` returned an EC50 in series [1] of 37 nM. In addition, in series [2], the Intrinsic activity was 0.8.

The molecule `CS(=O)(=O)c1ccc(-n2ccc(OC3CCN(C(=O)Oc4ccccc4)CC3)cc2=O)cc1` yielded an EC50 in series [1] of 130 nM. The molecule also had an Intrinsic activity in series [2] of 0.9.

On to `COc1cnc(N2CCC(Oc3ccn(-c4ccc(S(C)(=O)=O)cc4)c(=O)c3)CC2)nc1`, for which the EC50 in series [1] is 117 nM. In series [2], this molecule returned an Intrinsic activity of 1.

For `CCCc1cnc(N2CCC(Oc3cc(=O)n(-c4ccc(S(C)(=O)=O)cc4)cc3C)CC2)nc1`, the EC50 in series [1] was found to be 31 nM. In series [2], this molecule showed an Intrinsic activity of 0.9.

In series [1], `CS(=O)(=O)c1ccc(-n2ccc(OC3CCN(c4ncc(C5CC5)cn4)CC3)cc2=O)cc1` yielded an EC50 of 23 nM. In series [2], this molecule yielded an Intrinsic activity of 0.9.

Consider `CCCc1cnc(N2CCC(Oc3cc(=O)n(-c4ccc(S(C)(=O)=O)cc4)cc3C#N)CC2)nc1`, for which, in series [1], the EC50 is 12 nM. In series [2], the Intrinsic activity came out at 0.8.

Molecule `CC(C)OC(=O)N1[C@@H]2CC[C@@H]1CC(Oc1ccn(-c3ccc(S(C)(=O)=O)cc3)c(=O)c1)C2` (relative stereo; 13) [listing 2 of 2 here] returned an Intrinsic activity in series [2] of 1.

Turning to `CC(C)OC(=O)N1CCCC(Oc2ccn(-c3ccc(S(C)(=O)=O)cc3)c(=O)c2)CC1` (stereo not given), in series [1], the midpoint of the response, the EC50, lay at 1090 nM. The same molecule registered an Intrinsic activity in series [2] of 0.7.

Take `CS(=O)(=O)c1ccc(-n2cc(Cl)c(OC3CCN(c4ncc(Cl)cn4)CC3)cc2=O)cc1`: the half-life in series [3] came out at 9 min; in series [4], 59 min; in series [5], 11 min. Also, in series [1], the EC50 was 18 nM. For the same molecule, the solubility is < 1 µg/mL in series [6] and 7 µg/mL (≈ 14.1 µM) in series [7].

Values taken from ChEMBL document CHEMBL3352258 (J Med Chem, 2014).
